Test results reported in patent US4207326A, “Antimicrobial quaternary pyrazole derivatives” (Cilag-Chemie A.G., priority 1979, dated 1980).
Like-named read-outs stand apart in the source and are kept apart here.

How the values were obtained:
M. canis = assay: Antifungal activity: Minimum Inhibitory Concentration; type: cell-based, Microsporum canis NCPF 351; conditions: Microsporum canis, M. canis, 27° C., one week, read-out: Minimum Inhibitory Concentration
Experimental: (§1) The antimicrobial activity was determined by inoculation of the test microorganism into suitable growth media containing solutions of the compounds at concentrations of 100, 50, 10, 5, 1.0, 0.5 and 0.1 μg/ml. The reference antibiotics used were Gentamicin for the antibacterial tests and Amphotericin B for the antimycotic and antifungal tests. After incubation the antimicrobial activity was recorded as the Minimal Inhibitory Concentration (M.I.C.), i.e., the lowest concentration preventing macroscopically visible growth, for each test compound against each organism.
(§2) An initial solution of each formula (I) compound to be tested in sterile distilled water was prepared at a concentration of 1000 μg/ml. With appropriate dilutions using sterile distilled water, additional solutions were prepared at concentrations of 500, 100, 50, 10, 5 and 1 μg/ml.
(§3) The A. corymbifera, A. fumigatus, S. schenkii, T. rubrum, T. mentagrophytes, M. canis and P. verrucosa strains were all maintained on Sabouraud-Dextrose Agar (Oxoid CM 41) by incubating for 14 days at 27° C. To prepare the inocula 30 ml volumes of Sabouraud-Liquid medium (Oxoid CM 147) were inoculated from the agar cultures and incubated at 27° C. until heavy uniform growth resulted. The mycelial growth was then broken up by shaking with glass beads.
(§4) 1 Ml aliquots were removed from each of the cultures for the purpose of making viable counts and the cultures were then held at 4° C. The viable counts were made by preparing serial ten-fold dilutions of the cultures in sterile physiological saline and spreading on plates of Sabouraud-Dextrose Agar (Oxoid CM 41) which were then incubated at 27° C. for 14 days. When the viable counts had confirmed that each of the inocula contained approximately 10^6 colony forming units (C.F.U.) per ml the cultures were withdrawn from the refrigerator and used as the inocula for the tests.
(§5) (c) For the tests on each of the remaining seven strains and each of the test and reference compounds, a series of 8 tubes containing 4.5 ml volumes of Sabouraud-Liquid Medium (Oxoid CM 147) were prepared. To 7 of these were added 0.5 ml volumes of the final solutions of the test compounds, giving final concentrations in the broths of 100, 50, 10, 5, 1.0, 0.5 and 0.1 μg/ml. To the eighth tube in each series was added 0.5 ml of the solvent used and diluted as for the preparation of the 500 μg/ml solution of the compound. This tube was used as a growth control. The tubes were then inoculated with 0.1 ml aliquots of the inocula prepared as in "(b) Fungi" above. The tubes were then incubated at 27° C. with continuous shaking for a period of one week. The tubes were then examined for evidence of growth as shown by the presence of mycelial growth in the medium and the lowest concentration of the test compound which prevented fungal growth was recorded as the Minimal Inhibitory Concentration. This test procedure was carried out on two separate days.

T. rubrum = assay: as above; type: cell-based, Trichophyton rubrum NCPF 197; conditions: Trichophyton rubrum, T. rubrum, 27° C., one week, read-out: Minimum Inhibitory Concentration
Experimental: as §1, §2, §3, §4, §5

A. corymbifera = assay: as above; type: cell-based, Absidia corymbifera NCPF 2001; conditions: Lichtheimia corymbifera, A. corymbifera, 27° C., one week, read-out: Minimum Inhibitory Concentration
Experimental: as §1, §2
A. corymbifera NCPF 2001
as §3, §4, §5

P. mirabilis = assay: Antibacterial activity: Minimum Inhibitory Concentration; type: cell-based, Proteus mirabilis NCTC 8559; conditions: Proteus mirabilis, P. mirabilis, 37° C., 24 hours, read-out: Minimum Inhibitory Concentration
Experimental: as §1, §2
(§6) They were cultured and maintained on Tryptone Soy Agar (Oxoid CM 131), with the addition of 10% horse blood for the S. pyogenes.
(§7) To prepare the organisms as inocula for the test, slopes of this medium were streaked with the organisms and incubated at 37° C. for 24 hours. 4.5 Ml volumes of Brian-Heart Infusion Broth (Oxoid CM 225) were then inoculated with a platinum loop from the agar slope cultures and incubated for 24 hours at 37° C. The final inocula were then prepared by adding 0.1 ml aliquots of the Brain-Heart Infusion Broth cultures to 100 ml volumes of sterile physiological saline.
(§8) (a) For the test on each of the bacterial strains and each of the test and reference compounds, a series of 8 tubes containing 4.5 ml volumes of Brain-Heart Infusion Broth (Oxoid CM 225) were prepared. To 7 of these were added 0.5 ml volumes of the final solutions of the test compouns, giving final concentrations in the broths of 100, 50, 10, 5, 1.0, 0.5 and 0.1 μg/ml. To the eighth tube in each series was added 0.5 ml of the solvent used and diluted as for the preparation of the 1000 μg/ml solution of the compound. This tube was used as the growth control. The tubes were inoculated with 0.02 ml aliquots of the inocula prepared in accordance with "(a) Bacteria" above, and incubated at 37° C. for 24 hours. The tubes were then examined for evidence of bacterial growth as shown by turbidity of the medium and the lowest concentration of the test compound which prevented bacterial growth was recorded as the Minimal Inhibitory Concentration. This test procedure was carried out on two separate days.

P. aeruginosa = assay: as above; type: cell-based, Pseudomonas aeruginosa ATCC 9027; conditions: Pseudomonas aeruginosa, P. aeruginosa, 37° C., 24 hours, read-out: Minimum Inhibitory Concentration
Experimental: as §1, §2, §6, §7, §8

C. tropicalis = assay: Antimycotic activity: Minimum Inhibitory Concentration; type: cell-based, Candida tropicalis NCPF 3111; conditions: Candida tropicalis, pH 5.5, C. tropicalis, pH 5.5, 37° C., 72 hours, read-out: Minimum Inhibitory Concentrations
Experimental: as §1, §2
The two species, C. albicans and C. tropicalis, were maintained on Sabouraud-Dextrose Agar (Oxoid CM41) and cultures for the preparation of the inoculum were incubated on this agar at 37° C. for 48 hours. 4.5 Ml volumes of citric acid-phosphate buffer pH 5.5 plus Yeast-Nitrogen Base (Difco 0392-15) were then inoculated from the agar cultures and incubated at 37° C. for 48 hours. 0.1 Ml aliquots of these cultures were then added to 100 ml volumes of sterile physiological saline to give the final inocula.
(b) For the tests on each of the C. albicans, C. tropicalis and C. neoformans strains and each of the test and reference compounds, a series of 8 tubes containing 4.5 ml volumes of citric acid-phosphate buffer pH 5.5 plus Yeast-Nitrogen Base (Difco 0392-15) were prepared. To 7 of these were added 0.5 ml volumes of the final solutions of the test compounds, giving final concentrations in the broths of 100, 50, 10, 5, 1.0, 0.5 and 0.1 μg/ml. To the eighth tube in each series was added 0.5 ml of the solvent used and diluted as for the preparation of the 1000 μg/ml solution of the compound. This tube was used as the growth control. The tubes were then inoculated with 0.1 ml aliquots of the inocula prepared as in "(b) Fungi" above. The tubes inoculated with the C. albicans and C. tropicalis were inoculated at 37° C. for 72 hours and the tubes inoculated with the C. neoformans straim were incubated at 30° C. for 72 hours. […] The tubes were then examined for evidence of growth as shown by turbidity of the medium and the lowest concentration of the test compound which prevented fungal growth was recorded as the Minimal Inhibitory Concentration. This test procedure was carried out on two separate days.

CCCCCCCCCCCC[n+]1c(C)cc(C)n1Cc1ccc(Cl)cc1Cl.[Br-] [Example 6-B, 2-(2,4-dichlorobenzyl)-3,5-dimethyl-1-dodecyl-pyrazolium bromide]
MIC (M. canis; Day 1): 5 µg/mL
MIC (M. canis; Day 2): 5 µg/mL
MIC (T. rubrum; Day 1): 5 µg/mL
MIC (T. rubrum; Day 2): 1 µg/mL
MIC (A. corymbifera; Day 1): 10 µg/mL
MIC (A. corymbifera; Day 2): 10 µg/mL
MIC (P. mirabilis; Day 1): 50 µg/mL
MIC (P. mirabilis; Day 2): 50 µg/mL
MIC (P. aeruginosa; Day 1): 10 µg/mL
MIC (P. aeruginosa; Day 2): 10 µg/mL
MIC (C. tropicalis; Day 1): 1 µg/mL
MIC (C. tropicalis; Day 2): 1 µg/mL

CCCCCCCCCCCCCCCCn1ccc[n+]1C [Example 3-D, 1-hexadecyl-2-methyl-pyrazolium methosulfate]
MIC (M. canis; Day 1): 5 µg/mL
MIC (M. canis; Day 2): 5 µg/mL
MIC (T. rubrum; Day 1): 1 µg/mL
MIC (T. rubrum; Day 2): 1 µg/mL
MIC (A. corymbifera; Day 1): 10 µg/mL
MIC (A. corymbifera; Day 2): 5 µg/mL
MIC (P. mirabilis; Day 1): 10 µg/mL
MIC (P. mirabilis; Day 2): 50 µg/mL
MIC (P. aeruginosa; Day 1): 50 µg/mL
MIC (P. aeruginosa; Day 2): 10 µg/mL
MIC (C. tropicalis; Day 1): 0.5 µg/mL
MIC (C. tropicalis; Day 2): 0.5 µg/mL

CCCCCCCCCCCCn1c(C)cc(C)[n+]1C [Example 1, 1-dodecyl-2,3,5-trimethyl-pyrazolium methosulfate]
MIC (M. canis; Day 1): 5 µg/mL
MIC (M. canis; Day 2): 10 µg/mL
MIC (T. rubrum; Day 1): 10 µg/mL
MIC (T. rubrum; Day 2): 10 µg/mL
MIC (A. corymbifera; Day 1): > 100 µg/mL
MIC (A. corymbifera; Day 2): > 100 µg/mL
MIC (P. mirabilis; Day 1): 100 µg/mL
MIC (P. mirabilis; Day 2): 100 µg/mL
MIC (P. aeruginosa; Day 1): 50 µg/mL
MIC (P. aeruginosa; Day 2): 10 µg/mL
MIC (C. tropicalis; Day 1): 5 µg/mL
MIC (C. tropicalis; Day 2): 5 µg/mL
